The values that follow come from patent US12552800B2, “Compounds for diagnosis” (AC IMMUNE SA, priority 2020, dated 2026).

Molecules are shown by their SMILES.

Series [1] addresses T1, PD brain-derived a-syn aggregates (Homo sapiens, UniProt P37840).
T1 construct: from tissue; host or cells: human PD donor brain, sarkosyl-insoluble 100,000 x g pellet
Briefly: Micro-radiobinding competition assay against [^3H]-a-syn-Ref. It counts as binding. Particulars: over [^3H]-a-syn-Ref at 20 nM; example compound at 1 μM. The procedure: The procedure was adapted from the protocol described in Spillantini et al., 1998. Frozen tissue blocks from PD donors were thawed on ice and homogenized using a glass dounce homogenizer. The homogenate was then centrifuged at 11,000×g (12,700 RPM) in an ultracentrifuge (Beckman, XL100K) for 20 minutes at 4° C. using a pre-cooled 70.1 rotor (Beckman, 342184). Pellets were resuspended in extraction buffer [10 mM Tris-HCl pH 7.4, 10% sucrose, […], 1% protease inhibitor (Calbiochem 539131), 1 mM EGTA, 1% phosphatase inhibitor (Sigma P5726 and P0044)] and centrifuged at 15,000×g (14,800 RPM, a 70.1 Ti rotor) for 20 minutes at 4° C. Pellets were discarded and sarkosyl (20% stock solution, Sigma L7414) was added to the supernatants to a final concentration of 1% at room temperature for one hour. This solution was then centrifuged at 100,000×g (38,000 RPM, 70.1 Ti rotor) for one hour at 4° C. Pellets containing enriched a-syn aggregates were resuspended in PBS and stored at −80° C. until use.
PD brain-derived a-syn aggregates were spotted onto microarray slides. The slides were incubated with the tritiated reference ligand, [^3H]-a-syn-Ref (as described in WO2017/153601) at 20 nM and the example compounds of this invention (non-radiolabelled) either at 1 μM or at increasing concentrations in the range of 50 pM to 2 μM. After incubation, slides were washed and exposed to a phosphor storage screen (GE healthcare, BAS-IP TR 2025). Following exposure, phosphor storage screens were scanned with a laser imaging system (Typhoon FLA 7000) to readout the signal from the radiobinding experiments described above. Quantification of the signal was performed using the ImageJ software package. […] All measurements were performed with at least two technical replicates.
Example compounds were assessed for their potency to compete with the binding of [3H] radiolabelled reference ligand to PD patient brain-derived a-syn aggregates. Results of the micro-radiobinding competition assay for the example compounds tested are shown in Table 5 as: % competition at 1 μM and Ki value. All measurements were performed on the same PD brain-derived a-syn aggregates.

The target of series [2] is T1, PD brain-derived a-syn aggregates. The series is described as follows: Micro-radiobinding competition assay against Example-1 [^3H-1] (Table 8). Particulars: human PD brain-derived a-syn aggregates; for Competition at 100 nM (%): 100 nM non-radiolabelled example compound vs Example-1 [^3H-1] ligand; for Competition at 1 μM (%): 1 μM non-radiolabelled example compound vs Example-1 [^3H-1] ligand. It counts as binding. The method, boiled down:
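Human PD brain-derived α-syn aggregates on microarray slides were co-incubated with 6 nM or 20 nM tritiated radioligand and unlabelled compound at 1 μM and 100 nM, some over 0.05 nM–2 μM. Bound signal read by real-time autoradiography; values are % competition, at least two technical replicates, mean of independent experiments.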

Series [3] shares this target. The series is described as above. The series is classed as binding. The following applies: competition over Example-1 [^3H-1].
Series [4] can be described thus: PK study in a healthy monkey by PET. The series is classed as in vivo, Non-Human Primate (NHP). Particulars: iv, 6.5 mCi. The procedure: Non-Human Primate (NHP) was injected intravenously (iv) with the ^18F-labelled Example-1 [^18F-1] (6.5 mCi) using 1 mL ethanol and 14 mL ascorbate/saline (ascorbate solution was prepared at a concentration of 9.3 mg/mL). Monkey PET scans were performed using a Siemens Focus 220. PET acquisition started immediately before the radioactive dose was injected. Images were generated as dynamic scans for 120 minutes with head focused.

In the case of `O=C1c2cn(-c3ccc(N4CC[C@@H](F)C4)nc3)nc2CN1c1ccncc1` [Example 2], the “Competition at 1 μM (%)” value in series [1] is recorded as 68%; in series [2], 98%. For the same compound, in series [2], the “Competition at 100 nM (%)” value came out at 72%. In series [3], the Ki (usually a measure of affinity in units of concentration, obtained from inhibition or displacement) amounted to 7 nM.
Take `O=C1c2cn(-c3ccc(N4CC(F)C4)nc3)nc2CN1c1cccnc1` [Example 48]: in series [2], the “Competition at 100 nM (%)” value was 42% and the “Competition at 1 μM (%)” value was found to be 77%. Also, the inhibition constant Ki in series [3] was found to be 132 nM.
The corresponding values for `O=C1c2cn(-c3ccc(N4CCCC4)nc3)nc2CN1c1ccncc1F` [Example 113] are 75%, 91% and 40 nM.
On the same counts, the results for `O=C1c2cn(-c3ccc(N4CC[C@H](F)C4)nc3)nc2CN1c1ccncc1` [Example 54] are 71%, 88% and 19 nM.
The corresponding values for `O=C1c2cn(-c3ccc(N4CC[C@@H](F)C4)nc3)nc2CN1c1cc(O)ccn1` [Example 166] are 72%, 96% and 55 nM.
Regarding `O=C1c2cn(-c3ccc(N4CC[C@H](F)C4)nc3)nc2CN1c1cccnc1` [Example 3], in series [2], the “Competition at 100 nM (%)” value is recorded as 45% and the “Competition at 1 μM (%)” value turned out to be 89%. This compound displayed an inhibitory constant (Ki) in series [3] of 57 nM.
For the compound `Cn1ccc(-n2cc3c(n2)CN(c2cncc(F)n2)C3=O)n1` [Example 148], in series [2], the “Competition at 100 nM (%)” value came out at 77% and the “Competition at 1 μM (%)” value turned out to be 91%. Moreover, affinity in series [3] was put at a Ki of 40 nM.
The corresponding values for `COc1cncc(N2Cc3nn(-c4ccc(N5CC[C@H](F)C5)nc4)cc3C2=O)c1` [Example 98] are 38%, 76% and 89 nM.
Take `Nc1ccc(N2Cc3nn(-c4ccc(N5CCCC5)nc4)cc3C2=O)cc1F` [Example 50]: in series [2], the “Competition at 100 nM (%)” value is listed as 94% and the “Competition at 1 μM (%)” value is recorded as 103%. The Ki in series [3] was 8 nM.
The corresponding values for `Cc1cncc(N2Cc3nn(-c4ccc(N5CC[C@H](F)C5)nc4)cc3C2=O)c1` [Example 108] are 54%, 81% and 182 nM.
On to `O=C1c2cn(-c3ccc(N4CC[C@@H](F)C4)nc3)nc2CN1c1ccc(O)nc1` [Example 81], for which, in series [2], the “Competition at 100 nM (%)” value is on record as 56% and the “Competition at 1 μM (%)” value was found to be 90%. In series [3], this compound came in with a Ki of 118 nM.
For the compound `O=C1c2cn(-c3ccc(N4CC[C@H](F)C4)nc3)nc2CN1c1ccccn1` [Example 6], in series [2], the “Competition at 100 nM (%)” value was 87% and the “Competition at 1 μM (%)” value came to 98%. This compound also came in with a Ki in series [3] of 19 nM.
The corresponding values for `O=C1c2cn(-c3ccc(N4CC[C@@H](F)C4)nc3)nc2CN1c1ncccc1O` [Example 167] are 68%, 93% and 56 nM.
On the same counts, the results for `O=C1c2cn(-c3ccc(N4CC[C@H](F)C4)nc3)nc2CN1c1cn[nH]c1` [Example 181] are 67%, 75% and 136 nM.
Compound `O=C1c2cn(-c3ccc(N4CC[C@@H]([18F])C4)nc3)nc2CN1c1cccnc1` [Example-1 [^18F-1]] showed an SUVmax whole brain in series [4] of 2.0. In series [4] (whole brain), the “time of uptake post injection” value came to 3.5 min and the “washout, peak to half peak” value was 14 min.
As to `O=C1c2cn(-c3ccc(N4CC[C@H](F)C4)nc3)nc2CN1c1cccc(O)n1` [Example 163], in series [2], the “Competition at 100 nM (%)” value was 49% and the “Competition at 1 μM (%)” value stood at 99%. The same compound had an inhibition constant (Ki) in series [3] of 67 nM.
Turning to `O=C1c2cn(-c3ccc(N4CC[C@H](F)C4)nc3)nc2CN1c1ncccn1` [Example 18], in series [2], the “Competition at 100 nM (%)” value was 23% and the “Competition at 1 μM (%)” value came out at 86%. Besides, in series [3], the Ki was 111 nM.
The corresponding values for `O=C1c2cn(-c3ccc(N4CC[C@@H](F)C4)nc3)nc2CN1c1ccccn1` [Example 5] are 68%, 98% and 26 nM.
On the same counts, the results for `COc1cncc(N2Cc3nn(-c4ccc(N5CC[C@@H](F)C5)nc4)cc3C2=O)c1` [Example 97] are 33%, 84% and 84 nM.
The corresponding values for `COc1ccc(N2Cc3nn(-c4ccc(N5CC[C@@H](F)C5)nc4)cc3C2=O)cc1` [Example 27] are 87%, 99% and 13 nM.
Take `Cn1cc(N2Cc3nn(-c4ccc(N5CC[C@@H](F)C5)nc4)cc3C2=O)cn1` [Example 26]: in series [2], the “Competition at 100 nM (%)” value is on record as 87% and the “Competition at 1 μM (%)” value was found to be 108%. For the same compound, in series [3], the Ki was 20 nM.
The corresponding values for `Cl.O=C1c2cn(-c3ccc(N4CC[C@H](F)C4)nc3)nc2CN1c1cnccn1` [Example 17] are 68%, 100% and 21 nM.
Consider `O=C1c2cn(-c3ccc(N4CC[C@H](F)C4)nc3)nc2CN1c1ccc(F)cc1` [Example 64], for which, in series [2], the “Competition at 100 nM (%)” value worked out at 54% and the “Competition at 1 μM (%)” value is 95%. The same compound yielded a Ki in series [3] of 2 nM.
The corresponding values for `O=C1c2cn(-c3ccc(N4CC[C@H](F)C4)nc3)nc2CN1c1ccnnc1` [Example 19] are 23%, 83% and 74 nM.
For `O=C1c2cn(-c3ccc(N4CCOCC4)nc3)nc2CN1c1cnc(F)cn1` [Example 142], in series [2], the “Competition at 100 nM (%)” value is recorded as 92% and the “Competition at 1 μM (%)” value is reported as 99%. In series [3], this compound displayed a Ki of 6 nM.
As for `O=C1c2cn(-c3ccc(N4CC[C@H](F)C4)nc3)nc2CN1c1ccc(O)nc1` [Example 101], the “Competition at 1 μM (%)” value in series [2] was found to be 75%. Besides, in series [3], affinity was put at a Ki of 311 nM.
On to `O=C1c2cn(-c3ccc(N4CC[C@H](F)C4)nc3)nc2CN1c1cccnn1` [Example 151], for which, in series [2], the “Competition at 100 nM (%)” value was 51% and the “Competition at 1 μM (%)” value was 81%. The affinity in series [3], expressed as Ki, was 226 nM.
The corresponding values for `Cc1cncc(N2Cc3nn(-c4ccc(N5CC[C@@H](F)C5)nc4)cc3C2=O)c1` [Example 105] are 57%, 83% and 149 nM.
For `O=C1c2cn(-c3ccc(N4CC[C@@H](F)C4)nc3)nc2CN1c1cncc(F)c1` [Example 91], in series [2], the “Competition at 100 nM (%)” value was determined as 44% and the “Competition at 1 μM (%)” value is recorded as 84%. Also, the Ki in series [3] was determined as 42 nM.
